Source: patent US4540700A, “Treatment of diabetic complications with certain spiro-imidazolidine-diones” (Alcon Laboratories, Inc., priority 1984, dated 1985)

System: cataract formation in galactocemic rats
Assay: in vivo dose response by intubation (per oral) in galactocemic rats, cataract (vacuole) formation
Parameters: species or system Charles River CD (Sprague-Dawley derived) male rats
Method: B. In vivo dose response studies were conducted to test the in vivo activity of the following compounds by intubation (per oral) in galactocemic rats on a 30% galactose diet previously described:
Stock suspensions of the test compounds and all dilutions of the compound were formulated with 0.03% by weight Tween 80.
Healthy, Charles River CD (outbred albino, Sprague-Dawley derived) male rats, aged 20-30 days, without observable ocular defects and ranging in weight from 35-45 grams, were acclimated to experimental conditions (in quarantine) for two days prior to beginning the study.
Rats were individually assigned to one of twenty-three groups according to a random number schedule. Two rats, belonging to the same drug-diet treatment group, were housed per cage. Treatment and control groups consisted of six (6) rats each with no replacement in the event of death, and were designated as follows:
Lenses of all eyes were examined with a hand-held ophthalmoscope in the early stages of cataract development and a penlight for the stages, snowflake-like, snowflake, and nuclear cataract. Lens grading occurred every day for the first ten study days, and then every other day until study Day 14.
The relative potency determination was made at 7 drug levels over half log dose intervals. The response (percent cataracts formed and/or the time to cataract formation) was plotted against mg/kg and/or moles/kg.
The study was directed to the suppression and/or elimination of the initial stages of cataract development characterized by vacuoles or snowflake-likeopacities only. It was assumed therefore that suppression and/or elimination of vacuoles or lens opacification by the test drugs affects the transport, absorption and/or metabolism of galactose in such a manner as to prevent subsequent osmotic disturbances normally leading to tissue degeneration and advanced cataract. Advanced cataract defined as stages 2-4 of the Sipple classification was assumed to be of secondary importance to the etiology of cataract inhibition.
In the event where cataract stage other than vacuole formed, such as snowflake-like opacities, this cataract was counted similarly as vacuole in percent cataract formation.
This study yielded this expected effect in the control groups.
All animals were fed Purina Laboratory Chow and water, ad libitum, for the two day acclimation period. All drugs were dosed orally by intubation using an animal feeding needle (Popper and Sons), 18 or 20 gauge, attached to a 1 or 3 ml syringe. Once the dosing time schedule was established, the schedule was followed throughout the study to compensate for any diurnal variation.
The animals were kept on a twelve hour day/night cycle. The temperature and humidity were determined each day at the scheduled dosing time of 1:00 p.m.
The animals were weighed every other day and adjustments to dosage amounts to compensate for weight gain were made each day prior to the dose time. All food was routinely withheld from all animal groups for four hours (9:00 a.m.) prior to the drug dose and restored two hours (3:00 p.m.) post-dose. Otherwise sufficient amounts of chow or diet mixture were maintained in the food hopper to allow the animals to eat ad libitum. There were two days of drug dosage with the animals remaining on Purina Laboratory Chow (Days 1 and 2). The 30% galactose diet mixture was introduced to the animals two hours post-dose on Day 3 which constituted Day 1 of the study.
All eyes were examined with a hand-held ophthalmoscope and/or penlight at the times designated in the Experimental Design section.
It has been found in previous studies that dilation of the eye with a mydriactic (i.e. Mydriacyl) is not necessary for accurate grading, due to the semi-transparent nature of the rat iris. In the early stages (i.e., grades -, ±, and +) the lens was observed by reflecting the ophthalmoscope beam off the retina back through the lens and iris. Using this technique, vacuoles appear as dark, almost opaque patches. […]

SMILES: O=C1NC(=O)C2(N1)c1ccccc1-c1ccc(F)cc12 (racemic) [Compound L, dl-Spiro(2-fluorofluoren-9,4'-imidazolidine)-2',5'-dione]
- Percent of Rat Eyes With at Least Vacuoles Formed (0.126 mg/kg p.o., Day 0): 0%
- Percent of Rat Eyes With at Least Vacuoles Formed (0.126 mg/kg p.o., Day 1): 0%
- Percent of Rat Eyes With at Least Vacuoles Formed (0.126 mg/kg p.o., Day 2): 0%
- Percent of Rat Eyes With at Least Vacuoles Formed (0.126 mg/kg p.o., Day 3): 0%
- Percent of Rat Eyes With at Least Vacuoles Formed (0.126 mg/kg p.o., Day 4): 0%
- Percent of Rat Eyes With at Least Vacuoles Formed (0.126 mg/kg p.o., Day 5): 0%
- Percent of Rat Eyes With at Least Vacuoles Formed (0.126 mg/kg p.o., Day 6): 33%
- Percent of Rat Eyes With at Least Vacuoles Formed (0.126 mg/kg p.o., Day 7): 33%
- Percent of Rat Eyes With at Least Vacuoles Formed (0.126 mg/kg p.o., Day 8): 50%
- Percent of Rat Eyes With at Least Vacuoles Formed (0.126 mg/kg p.o., Day 9): 50%
- Percent of Rat Eyes With at Least Vacuoles Formed (0.126 mg/kg p.o., Day 10): 50%
- Percent of Rat Eyes With at Least Vacuoles Formed (0.126 mg/kg p.o., Day 12): 83%
- Percent of Rat Eyes With at Least Vacuoles Formed (0.126 mg/kg p.o., Day 14): 83%
- Percent of Rat Eyes With at Least Vacuoles Formed (0.4 mg/kg p.o., Day 0): 0%
- Percent of Rat Eyes With at Least Vacuoles Formed (0.4 mg/kg p.o., Day 1): 0%
- Percent of Rat Eyes With at Least Vacuoles Formed (0.4 mg/kg p.o., Day 2): 0%
- Percent of Rat Eyes With at Least Vacuoles Formed (0.4 mg/kg p.o., Day 3): 0%
- Percent of Rat Eyes With at Least Vacuoles Formed (0.4 mg/kg p.o., Day 4): 0%
- Percent of Rat Eyes With at Least Vacuoles Formed (0.4 mg/kg p.o., Day 5): 0%
- Percent of Rat Eyes With at Least Vacuoles Formed (0.4 mg/kg p.o., Day 6): 0%
- Percent of Rat Eyes With at Least Vacuoles Formed (0.4 mg/kg p.o., Day 7): 8%
- Percent of Rat Eyes With at Least Vacuoles Formed (0.4 mg/kg p.o., Day 8): 42%
- Percent of Rat Eyes With at Least Vacuoles Formed (0.4 mg/kg p.o., Day 9): 42%
- Percent of Rat Eyes With at Least Vacuoles Formed (0.4 mg/kg p.o., Day 10): 67%
- Percent of Rat Eyes With at Least Vacuoles Formed (0.4 mg/kg p.o., Day 12): 83%
- Percent of Rat Eyes With at Least Vacuoles Formed (0.4 mg/kg p.o., Day 14): 100%
- Percent of Rat Eyes With at Least Vacuoles Formed (1.26 mg/kg p.o., Day 0): 0%
- Percent of Rat Eyes With at Least Vacuoles Formed (1.26 mg/kg p.o., Day 1): 0%
- Percent of Rat Eyes With at Least Vacuoles Formed (1.26 mg/kg p.o., Day 2): 0%
- Percent of Rat Eyes With at Least Vacuoles Formed (1.26 mg/kg p.o., Day 3): 0%
- Percent of Rat Eyes With at Least Vacuoles Formed (1.26 mg/kg p.o., Day 4): 0%
- Percent of Rat Eyes With at Least Vacuoles Formed (1.26 mg/kg p.o., Day 5): 0%
- Percent of Rat Eyes With at Least Vacuoles Formed (1.26 mg/kg p.o., Day 6): 0.0%
- Percent of Rat Eyes With at Least Vacuoles Formed (1.26 mg/kg p.o., Day 6, listed as 2-fluoro): 0%
- Percent of Rat Eyes With at Least Vacuoles Formed (1.26 mg/kg p.o., Day 7): 0%
- Percent of Rat Eyes With at Least Vacuoles Formed (1.26 mg/kg p.o., Day 8): 0%
- Percent of Rat Eyes With at Least Vacuoles Formed (1.26 mg/kg p.o., Day 9): 0%
- Percent of Rat Eyes With at Least Vacuoles Formed (1.26 mg/kg p.o., Day 10): 0%
- Percent of Rat Eyes With at Least Vacuoles Formed (1.26 mg/kg p.o., Day 12): 0%
- Percent of Rat Eyes With at Least Vacuoles Formed (1.26 mg/kg p.o., Day 14): 0%
- Percent of Rat Eyes With at Least Vacuoles Formed (4.0 mg/kg p.o., Day 0): 0%
- Percent of Rat Eyes With at Least Vacuoles Formed (4.0 mg/kg p.o., Day 1): 0%
- Percent of Rat Eyes With at Least Vacuoles Formed (4.0 mg/kg p.o., Day 2): 0%
- Percent of Rat Eyes With at Least Vacuoles Formed (4.0 mg/kg p.o., Day 3): 0%
- Percent of Rat Eyes With at Least Vacuoles Formed (4.0 mg/kg p.o., Day 4): 0%
- Percent of Rat Eyes With at Least Vacuoles Formed (4.0 mg/kg p.o., Day 5): 0%
- Percent of Rat Eyes With at Least Vacuoles Formed (4.0 mg/kg p.o., Day 6): 0.0%
- Percent of Rat Eyes With at Least Vacuoles Formed (4.0 mg/kg p.o., Day 6, listed as 2-fluoro): 0%
- Percent of Rat Eyes With at Least Vacuoles Formed (4.0 mg/kg p.o., Day 7): 0.0%
- Percent of Rat Eyes With at Least Vacuoles Formed (4.0 mg/kg p.o., Day 7, listed as 2-fluoro): 0%
- Percent of Rat Eyes With at Least Vacuoles Formed (4.0 mg/kg p.o., Day 8): 0.0%
